Assay results: ChEMBL document CHEMBL4364338, “Probing the side chain tolerance for inhibitors of the CD95/PLCγ1 interaction” (Bioorg Med Chem Lett, 2019)
pIC50: −log10 of the molar value. Activity calls are given as the source filed them. The rule behind the calls is not given here.

Tests used:
[1] = Inhibition of CD95 (unknown origin)/PLCgamma-1 SH3 domain (unknown origin) protein-protein interaction transfected in HEK293T cells incubated for 1 hr by renilla luciferase based protein-fragment complementation assay; assay type: cell-based, Homo sapiens
Homo sapiens [2] = species: Homo sapiens; experiment: Selectivity index, ratio of IC50 for CD95 (unknown origin)/FADD (unknown origin) protein-protein interaction transfected in HEK293T cells to IC50 for CD95 (unknown origin)/PLCgamma-1 SH3 domain (unknown origin) protein-protein interaction transfected in HEK293T cells; assay type: cell-based
[3] = Inhibition of CD95 (unknown origin)/FADD (unknown origin) protein-protein interaction transfected in HEK293T cells incubated for 1 hr by renilla luciferase based protein-fragment complementation assay; assay type: cell-based, Homo sapiens
Homo sapiens [4] = species: Homo sapiens; experiment: Inhibition of CD95 (unknown origin)/PLCgamma-1 SH3 domain Q805A mutant (unknown origin) protein-protein interaction transfected in HEK293T cells incubated for 1 hr by renilla luciferase based protein-fragment complementation assay; assay type: cell-based
Homo sapiens [5] = species: Homo sapiens; experiment: Inhibition of CD95 (unknown origin)/PLCgamma-1 SH3 domain D808A mutant (unknown origin) protein-protein interaction transfected in HEK293T cells incubated for 1 hr by renilla luciferase based protein-fragment complementation assay; assay type: cell-based

Compound | pIC50 [1] | Ratio IC50 (Homo sapiens [2]) | pIC50 [3] | inhibition (Homo sapiens [4]) | inhibition (Homo sapiens [5])
CCC(=O)N(CCN)[C@@H](CCCNC(=N)N)C(=O)NCCN(C(=O)CCCCCN)[C@@H](Cc1c[nH]cn1)C(=O)NCCN(C(=O)CCCCNC(=N)N)[C@@H](CCCCN)C(N)=O | 4.21 | > 100 | < 2.30 | – | –
N=C(N)NCCCCC(=O)N(CCNC(=O)[C@H](Cc1c[nH]cn1)N(CCNC(=O)[C@H](CCCNC(=N)N)N(CCN)C(=O)CCS)C(=O)CCCCCN)[C@@H](CCCCN)C(N)=O | 4.12 | 50 | 2.42 | – | –
N=C(N)NCCC[C@@H](C(=O)NCCN(C(=O)CCCCCN)[C@@H](Cc1c[nH]cn1)C(=O)NCCN(C(=O)CCc1ccc(O)cc1)[C@@H](CCCCN)C(N)=O)N(CCN)C(=O)CCS | 3.18 | > 10 | < 2.30 | – | –
N=C(N)NCCC[C@@H](C(=O)NCCN(C(=O)CCCCCN)[C@@H](Cc1c[nH]cn1)C(=O)NCCN(C(=O)CCc1ccc(N)cc1)[C@@H](CCCCN)C(N)=O)N(CCN)C(=O)CCS | 3.07 | > 10 | < 2.30 | – | –
N=C(N)NCCC[C@@H](C(=O)NCCN(C(=O)CCCCCN)[C@@H](Cc1c[nH]cn1)C(=O)NCCN(C(=O)CCCCCC(N)=O)[C@@H](CCCCN)C(N)=O)N(CCN)C(=O)CCS | < 2.30 | – | < 2.30 | – | –
N=C(N)NCCC[C@@H](C(=O)NCCN(C(=O)CCCCCN)[C@@H](Cc1c[nH]cn1)C(=O)NCCN(C(=O)CCc1c[nH]c2ccccc12)[C@@H](CCCCN)C(N)=O)N(CCN)C(=O)CCS | 3.46 | 8 | 2.58 | – | –
C[C@@H](O)[C@H](N)C(=O)NCCN(C(=O)CCS)[C@@H](CCCNC(=N)N)C(=O)NCCN(C(=O)CCCCCN)[C@@H](Cc1c[nH]cn1)C(=O)NCCN(C(=O)CCCCNC(=N)N)[C@@H](CCCCN)C(N)=O | 4.11 | > 100 | < 2.30 | inactive | inactive
N=C(N)NCCCCC(=O)N(CCNC(=O)[C@H](Cc1c[nH]cn1)N(CCNC(=O)[C@H](Cc1c[nH]c2ccccc12)N(CCN)C(=O)CCS)C(=O)CCCCCN)[C@@H](CCCCN)C(N)=O | 4.07 | 2 | 3.76 | – | –
N=C(N)NCCCCC(=O)N(CCNC(=O)[C@H](Cc1c[nH]cn1)N(CCNC(=O)[C@H](Cc1cccnc1)N(CCN)C(=O)CCS)C(=O)CCCCCN)[C@@H](CCCCN)C(N)=O | 3.04 | 4 | 2.37 | – | –
H-TCRKHRK-OH | 4.46 | > 100 | < 2.30 | – | –
N=C(N)NCCCCC(=O)N(CCNC(=O)[C@H](Cc1c[nH]cn1)N(CCNC(=O)[C@H](CCCNC(=N)N)N(CCN)C(=O)CCO)C(=O)CCCCCN)[C@@H](CCCCN)C(N)=O | 4.10 | 50 | 2.41 | – | –
